Patent US20210330611A1, “THERAPY FOR NEUROLOGICAL DISEASES/DISORDERS” (priority 2020, published 2021)

Columns and labels:
naïve CD4+ T cells = test: Non-antigen-specific T-cell proliferation (anti-CD3/CD28); type: cell-based, mouse; conditions: 5, 0.5 or 0.05 μM, FIG. 14G, H
Procedure: T-cell proliferation assay. For antigen-specific T cell proliferation, näive CD4+ T cells were magnetically sorted from the TCR-transgenic 2D2 mice using naïve CD4+ T cell isolation kits (Miltenyi Biotec). […]. For non-antigen-specific T cell proliferation, naïve CD4^+ T cells were treated with acivicin and stimulated with mouse T-activator CD3/CD28 Dynabeads (Thermo Fisher Scientific) for 3 d. Cells were then fixed, permeabilized, and stained with FITC-conjugated anti-BrdU (BrdU Flow Kits, BD Biosciences).

GGT [1] = molecular target: T1, GGT (Mus musculus, UniProt Q60928); test: GGT activity assay in fibrin-stimulated BMDMs (enzymatic kit, ProteoGREEN-gGlu probe); type: cell-based; conditions: FIG. 6c, FIG. 13A, B
T1 construct: GGT activity in BMDMs left unstimulated or stimulated with fibrin after acivicin or vehicle control treatment; endogenous in cells; host or cells: mouse bone marrow-derived macrophages (BMDMs), fibrin-stimulated
T1 sequence (Q60928 380-568): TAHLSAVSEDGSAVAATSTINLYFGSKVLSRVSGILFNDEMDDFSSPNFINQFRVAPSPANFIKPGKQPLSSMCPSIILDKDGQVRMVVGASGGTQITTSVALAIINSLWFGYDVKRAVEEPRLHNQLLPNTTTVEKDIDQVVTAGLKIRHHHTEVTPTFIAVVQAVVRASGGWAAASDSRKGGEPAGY
T1 sequence (Q60928 1-379): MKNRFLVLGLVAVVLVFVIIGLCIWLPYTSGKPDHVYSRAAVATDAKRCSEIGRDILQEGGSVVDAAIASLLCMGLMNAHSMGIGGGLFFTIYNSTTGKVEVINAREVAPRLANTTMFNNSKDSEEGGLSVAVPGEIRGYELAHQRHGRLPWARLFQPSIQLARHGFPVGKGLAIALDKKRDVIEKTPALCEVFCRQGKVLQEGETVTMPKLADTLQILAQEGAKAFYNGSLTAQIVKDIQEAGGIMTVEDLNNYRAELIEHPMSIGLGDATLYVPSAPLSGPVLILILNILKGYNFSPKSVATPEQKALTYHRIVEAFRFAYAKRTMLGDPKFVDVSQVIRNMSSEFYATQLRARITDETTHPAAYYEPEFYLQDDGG
Procedure: (§1) GGT activity assay. GGT activity was measured using the MaxDiscovery gamma-Glutamyl Transferase (GGT) Enzymatic Assay Kit (Bioo Scientific) according to the manufacturer's protocol. […]. For in vivo GGT activity assay, spinal cord tissues from the onset of MOG35-55 EAE or LPS-injected substantia nigra area at 12 h were prepared. Tissues were homogenized in 0.1 M Tris-HCl and centrifuged at 13,000 g for 30 min at 4° C. The supernatant was collected and subsequently assessed for GGT activity. The absorbance at 405 nm was detected with a SpectraMax M5 microplate reader (Molecular Devices) with SoftMax Pro 5.2 software (Phoenix Technologies Ltd.). The GGT activity in IU/1 was calculated following the manufacturer's protocol by multiplying the average increase in absorbance at 405 nm over 10 min GGT activity was also measured using a fluorescent probe, ProteoGREEN-gGlu (Goryo Chemical, Hokkaido, Japan), according to the manufacturer's protocol. Cultured BMDMs were plated on 96-well, black μ-clear-bottom microtiter plates (Greiner Bio-One) pre-coated with 25 μg/ml fibrin. […] The fluorescence intensity (excitation/emission filter pairs of 488 nm/520 nm) was measured using a SpectraMax M5 microplate reader (Molecular Devices) with SoftMax Pro 5.2 software (Phoenix Technologies).

[2] = system: proinflammatory gene expression; test: qRT-PCR of spinal cord extracts of MOG35-55 EAE mice; type: in vivo, mouse; conditions: FIG. 7h
[3] = system: PLP139-151 EAE in SJL/J mice; test: Relapsing PLP139-151 EAE in SJL/J mice, clinical scores; type: in vivo, mouse; conditions: therapeutic, daily from peak of initial paralytic episode, FIG. 7c
[4] = Serum protein carbonyl content assay in MOG35-55 EAE mice; type: in vivo, mouse; conditions: FIG. 7g
Procedure: Protein carbonyl content assay. Blood was isolated from EAE mice via terminal cardiac puncture, and serum levels of protein carbonylation were measured with OxiSelect™ Protein Carbonyl ELISA (Cell Biolabs) according to the manufacturer's protocol. The absorbance at 450 nm was measured using a SpectraMax M5 microplate reader (Molecular Devices) with SoftMax Pro 5.2 software (Phoenix Technologies Ltd.).

GGT [5] = test: GGT activity in spinal cord of MOG35-55 EAE mice; type: in vivo, mouse; conditions: FIG. 7e
Procedure: as §1

[6] = system: LPS injection in the substantia nigra; test: LPS-induced neurodegeneration in substantia nigra, TH and Iba-1 immunohistochemistry; type: in vivo, mouse
Procedure: Stereotactic LPS injection and drug treatment. Mice were anaesthetized with isoflurane and placed in a stereotactic apparatus (David Kopf Instruments). LPS (Sigma-Aldrich) was dissolved in endotoxin-free distilled water (HyClone) and was diluted to 1 μg/ml with PBS. LPS (2 μl of 1 μg/ml) or PBS was slowly injected (0.3 μl/min) using a 10-μl Hamilton syringe attached to a 33-G needle into the substantia nigra at coordinates (anteroposterior, 3.0 mm; mediolateral, 1.3 mm; dorsoventral, 4.7 mm from the bregma, according to Paxinos and Watson) Animals received acivicin (5 mg/kg) or saline intraperitoneally beginning 5 days before LPS injection and for 7 days after LPS injection. After 12 h of the LPS injection, the substantia nigra area was immediately collected on ice and kept at −80° C. for later analysis of GGT activity. After 7 d of the LPS injection, mice were perfused with 4% PFA, and the brains were post-fixed in 4% PFA overnight at 4° C. […] Images were acquired with all-in-one BZ-X700 fluorescence microscope. Images were quantified using NIH ImageJ (version 1.50) by blinded observers.

N[C@H](C(=O)O)[C@@H]1CC(Cl)=NO1 [Acivicin, (2S)-2-amino-2-[(5S)-3-chloro-4,5-dihydro-1,2-oxazol-5-yl] acetic acid]
T cell proliferation (BrdU) without APCs, anti-CD3 and anti-CD28 (naïve CD4+ T cells): only in the presence of APCs
fibrin-induced GGT activity in BMDMs (GGT [1]): inhibited
proinflammatory gene expression [2]: markedly reduced
clinical severity during relapses [3]: suppressed
serum protein carbonyl content [4]: markedly reduced
GGT activity in the EAE spinal cord (GGT [5]): decreased
microglial activation (Iba-1) ([6]; 7 d after LPS, FIG. 15c): decreased
dopaminergic neuronal survival (TH) ([6]; mouse, in vivo): improved
